Measurements as given in PubChem BioAssay (NCI).
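Results reflect a 48-hour exposure of cells in 96-well plates to compound at five concentrations. TGI: concentration producing complete growth inhibition.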

Experiments:
Assay in all cases: NCI tumour cell line growth inhibition, 48 h
BT-549 breast = test system: BT-549 breast
COLO 205 colon = test system: COLO 205 colon
XF 498 CNS = test system: XF 498 CNS
KM20L2 colon = test system: KM20L2 colon
SNB-78 CNS = test system: SNB-78 CNS
M19-MEL melanoma = test system: M19-MEL melanoma
DMS 273 small cell lung = test system: DMS 273 small cell lung
LXFL 529 NSCLC = test system: LXFL 529 NSCLC
DLD-1 colon = test system: DLD-1 colon
DMS 114 small cell lung = test system: DMS 114 small cell lung
HOP-18 NSCLC = test system: HOP-18 NSCLC

Row | Compound | TGI (BT-549 breast) [µM] | TGI (COLO 205 colon) [µM] | further results
1 | CCN(CC)CCCNc1ccc([N+](=O)[O-])c2nc3ccc(OC)cc3c(N)c12 | 2.9 | 2.67 | –
2 | O=C1NC(=S)NC(=O)C1=Cc1ccc(-c2ccccc2)cc1 | > 100 | > 100 | –
3 | CN1N=C(c2ccccc2)C(C(c2ccccc2[N+](=O)[O-])C2C(=O)N(C)N=C2c2ccccc2)C1=O (stereo not given) | > 100 | > 100 | –
4 | CCCCNC(=NCc1ccccc1)NC#N | – | > 100 | TGI (XF 498 CNS): > 100 µM; TGI (KM20L2 colon): > 100 µM; TGI (SNB-78 CNS): > 100 µM; TGI (M19-MEL melanoma): > 100 µM; TGI (DMS 273 small cell lung): > 100 µM; TGI (LXFL 529 NSCLC): > 100 µM; TGI (DLD-1 colon): > 100 µM
5 | CC(=O)C1(C)CC(C#N)(C#N)C(C#N)=C1N (stereo not given) | > 100 | > 100 | –
6 | C[C@@]1(Cc2ccccc2)C(=O)N2[C@@H](CO)C(c3ccccc3)O[C@]2(C)c2ccccc21 (stereo not given in full) | – | > 100 | TGI (DMS 114 small cell lung): > 100 µM; TGI (KM20L2 colon): > 100 µM; TGI (SNB-78 CNS): > 100 µM; TGI (M19-MEL melanoma): > 100 µM; TGI (DMS 273 small cell lung): > 100 µM; TGI (LXFL 529 NSCLC): > 100 µM; TGI (DLD-1 colon): > 100 µM
7 | CCOC(=O)CCC(NC(=O)C(N)c1ccc([N+](=O)[O-])cc1)C(=O)NC(CCC(=O)OCC)C(=O)OCC (stereo not given) | > 100 | > 100 | –
8 | CCCCC(/C=C\COC1CCCCO1)=C/C(=O)OCC (stereo not given) | > 100 | > 100 | –
9 | CC(=O)Oc1c(OC(C)C)c(C)c(O[Si](C(C)C)(C(C)C)C(C)C)c2[nH]c3ccccc3c12 | > 100 | > 100 | –
10 | CCN(CC)c1ccc2cc(C(=O)NCc3ccccc3)c(=N)oc2c1 | > 100 | > 59.7 | –
11 | CCN(CC)C(=S)SC1C(=O)NC(=O)NC1=O | > 100 | > 100 | –
12 | CC1(C)S[C@H](CN)N[C@H]1C(=O)OC(c1ccccc1)c1ccccc1 | 92.2 | 33.8 | –
13 | [N-]=[N+]=Nc1ccc2c(c1)Sc1ccccc1N2CCCCN1CCN(Cc2ccc(C(=O)c3ccc(CSCC(N)C(=O)O)cc3)cc2)CC1 (stereo not given) | 40.1 | 40.1 | –
14 | COc1ccc(NC(=O)CC(=O)NNC(Sc2ccccc2)c2cc(N=Nc3ccc(Br)cc3)ccc2O)cc1 (stereo not given) | > 10 | > 10 | –
15 | COc1cccc(C=C2N=C(c3ccccc3)N(n3c(-c4ccccc4)nc4ccccc4c3=O)C2=O)c1 | > 100 | > 100 | –
16 | C=C1C(=O)O[C@H]2C/C(C)=C/CC[C@]3(C)CCC[C@](C)(CC[C@@H]12)O3 | – | 14.8 | –
17 | CSC1=C(C(=O)Nc2ccc(C)cc2)C(N)=NC1=O | – | > 100 | –
18 | COc1cc(/C=N/c2ccccn2)cc(OC)c1OC | > 100 | > 100 | –
19 | Cc1cc(S(=O)(=O)Nc2n[nH]c(Nc3ccc4ccccc4c3)n2)c(S)cc1Cl | > 100 | > 100 | –
20 | CC(C)[Si]1(C(C)C)OCC2OC(n3c(C(=O)c4ccccc4)cc(=O)[nH]c3=O)CC2O[Si](C(C)C)(C(C)C)O1 (stereo not given) | 16.5 | 10.8 | –
21 | CC12C(=C(C#N)C(=N)N1c1ccc(Cl)c(Cl)c1)C=C(O)CC2SCCS(=O)(=O)O (stereo not given) | – | > 100 | TGI (DMS 114 small cell lung): > 100 µM; TGI (KM20L2 colon): > 100 µM; TGI (SNB-78 CNS): > 100 µM; TGI (M19-MEL melanoma): > 100 µM; TGI (DMS 273 small cell lung): > 100 µM; TGI (LXFL 529 NSCLC): > 100 µM; TGI (DLD-1 colon): > 100 µM
22 | CC(C)CC(NP(=O)(O)OC1OC(C)C(O)C(O)C1O)C(=O)NC(Cc1c[nH]c2ccccc12)C(=O)O (stereo not given) | > 100 | > 100 | –

Row | Compound | TGI (BT-549 breast) [µM] | TGI (COLO 205 colon) [µM] | further results
23 | NC(=O)NNCc1c(-c2ccccc2)no[n+]1[O-] | > 100 | > 100 | –
24 | COc1cc(C2c3[nH]c4ccccc4c3[C@@H](Nc3ccc(C#N)cc3)[C@H]3COC(=O)N23)cc(OC)c1O (stereo not given in full) | 0.796 | > 3.81 | –
25 | CCOC(=O)c1sc2c(c1O)c(=O)n(-c1ccccc1)c(=S)n2-c1ccccc1 | > 100 | > 100 | –
26 | C[C@@H]1CCC2C(C)(C)C(/C=C\C=O)C3(C)OC213 (stereo not given in full) | > 100 | 55.4 | –
27 | CCN(CC)c1ccc(C2Nc3ccc4ccccc4c3C3=C2C(=O)CCC3)cc1 (stereo not given) | > 100 | > 100 | –
28 | O=C(Cn1c(=O)oc2ccc(C(=O)c3ccc(F)cc3)cc21)c1ccccc1 | – | > 100 | –
29 | O=C(Cc1ccc([N+](=O)[O-])c([N+](=O)[O-])c1CC(=O)C(=O)Nc1cc(Cl)ccc1Cl)C(=O)Nc1cc(Cl)ccc1Cl | – | 52.5 | TGI (DMS 114 small cell lung): > 100 µM; TGI (KM20L2 colon): > 100 µM; TGI (SNB-78 CNS): > 100 µM; TGI (M19-MEL melanoma): > 100 µM; TGI (DMS 273 small cell lung): 87.3 µM; TGI (LXFL 529 NSCLC): > 100 µM; TGI (HOP-18 NSCLC): > 100 µM; TGI (DLD-1 colon): > 100 µM
30 | NC(=O)C(=CNC(=S)Nc1ccc(S(=O)(=O)Nc2ccccn2)cc1)C(N)=O | > 100 | > 100 | –
31 | CN(C)/C=N\c1nncc2[nH]cnc12 | > 100 | > 100 | –
32 | CN=C(N)N=Nc1c(O)[nH]c2ccccc12 | > 100 | > 100 | –
33 | NC(=O)c1nnsc1NN=O | – | > 100 | –
34 | CCO/C(O)=C(/C(=N)N1CCCC1)C(=O)Nc1cccc(Cl)c1 | > 100 | > 100 | –
35 | O=C(N/N=C(/c1nc2ccc([N+](=O)[O-])cc2[nH]c1=O)C(O)c1ccc([N+](=O)[O-])cc1)c1ccncc1 (stereo not given) | – | > 100 | TGI (DMS 114 small cell lung): > 100 µM; TGI (XF 498 CNS): > 100 µM; TGI (SNB-78 CNS): > 100 µM; TGI (M19-MEL melanoma): > 100 µM; TGI (LXFL 529 NSCLC): > 100 µM; TGI (HOP-18 NSCLC): > 100 µM; TGI (DLD-1 colon): > 100 µM
36 | NC(N)=NS(=O)(=O)c1ccc(NNC(=O)c2cccc3c(=O)c4ccccc4[nH]c23)cc1 | 73.6 | 54.7 | –
37 | OC(Cc1ccc2ccccc2n1)(C(F)(F)Cl)C(F)(F)Cl | > 10 | > 10 | –
38 | COc1cc(OC)c2c(=O)c3c([N+](=O)[O-])cccc3n(C)c2c1 | – | > 100 | TGI (DMS 114 small cell lung): > 100 µM; TGI (KM20L2 colon): > 100 µM; TGI (SNB-78 CNS): > 100 µM; TGI (M19-MEL melanoma): > 100 µM; TGI (DMS 273 small cell lung): > 100 µM; TGI (LXFL 529 NSCLC): > 100 µM; TGI (HOP-18 NSCLC): > 100 µM; TGI (DLD-1 colon): > 100 µM
39 | CCCCCCNC(=S)N/N=C(\C)c1ccccn1 | 16.8 | 18.2 | –
40 | CCc1[nH]c(=O)c2oc3cc4ccccc4cc3c2c1C(=O)O | > 10 | – | –
41 | N#Cc1ncn(CCO)c1N | > 100 | > 100 | –
42 | COc1cc(C(C[N+](=O)[O-])SC(C)=O)ccc1OCc1ccccc1 (stereo not given) | – | 13 | –
43 | CCOC(=O)C(/C(=N\NC(=O)OC)C(=O)Nc1cc(OC)ccc1OC)c1cnc2ccccc2n1 (stereo not given) | – | > 100 | TGI (DMS 114 small cell lung): > 100 µM; TGI (XF 498 CNS): > 100 µM; TGI (SNB-78 CNS): > 100 µM; TGI (M19-MEL melanoma): > 100 µM; TGI (LXFL 529 NSCLC): > 100 µM; TGI (HOP-18 NSCLC): > 100 µM; TGI (DLD-1 colon): > 100 µM
44 | CCCC(C)NC(=O)c1ccc(N(C)Cc2cnc3nc(N)nc(N)c3n2)cc1 (stereo not given) | 41.6 | > 100 | –

Row | Compound | TGI (BT-549 breast) [µM] | TGI (COLO 205 colon) [µM] | further results
45 | COC(=O)n1c(C)c(C=O)c2ccc(OC)cc21 | 73.2 | > 100 | –
46 | Cc1cccc(/C=N\NC(=S)N2CCCCC2)n1 | – | 0.22 | –
47 | CCOC(=O)N(C)C(=C(F)F)C(F)(F)F | – | 44 | –
48 | CCc1cc2c(c3c1CCCC3)CC1(Cc3ccc(C(=O)OC)cc3C1)C2 (stereo not given) | > 100 | > 100 | –
49 | Oc1cc(CN2CCOCCOCCOCCOCC2)c(O)cc1CN1CCOCCOCCOCCOCC1 | – | 39.6 | TGI (XF 498 CNS): 42.5 µM; TGI (KM20L2 colon): > 100 µM; TGI (SNB-78 CNS): > 100 µM; TGI (M19-MEL melanoma): 19.3 µM; TGI (LXFL 529 NSCLC): 44.2 µM; TGI (DLD-1 colon): 48.2 µM
50 | COc1cc(COC(=O)N2CC=CC2C(=O)O)c([N+](=O)[O-])cc1OC (stereo not given) | > 100 | > 100 | –
51 | COc1cc(C2c3cc4c(cc3OC(NCCc3ccccc3)C2C)OCO4)cc(OC)c1OC (stereo not given) | 22.7 | 0.605 | –
52 | c1ccc(-c2c3c(nc4c2CC[C@H]4NC2=NCCN2)[C@@H](NC2=NCCN2)CC3)cc1 | > 100 | > 100 | –
53 | CC(=O)OCC1OC(n2c(N)c(C#N)c(C)c(C#N)c2=S)C(OC(C)=O)C(OC(C)=O)C1OC(C)=O (stereo not given) | > 100 | > 100 | –
54 | Nc1ncnc2c1ncn2-c1ccc([N+](=O)[O-])cn1 | > 100 | > 100 | –
55 | CCCCCCSCC/C(C)=N\OC | > 100 | > 100 | –
56 | CCOC(=O)[C@@H]1ON2O[C@H](OC3CCCCC3c3ccccc3)C[C@H]3OC(=O)[C@@H]1C32 (stereo not given in full) | – | > 100 | –
57 | CCOC(=O)c1nc2ccc(C(F)(F)F)cc2nc1Nc1ccc(F)cc1 | > 100 | > 100 | –
58 | CCOC(=O)c1nc2ccccc2nc1Oc1ccc(C#N)cc1 | > 100 | > 100 | –
59 | CCCCOCOc1ccccc1P1(=O)COc2ccccc2OC1 | > 100 | > 100 | –
60 | Cc1ccc(NC(=O)CSc2nnc(Cc3ccccc3)o2)cc1 | – | > 100 | TGI (DMS 114 small cell lung): > 100 µM; TGI (KM20L2 colon): > 100 µM; TGI (SNB-78 CNS): > 100 µM; TGI (M19-MEL melanoma): > 100 µM; TGI (DMS 273 small cell lung): > 100 µM; TGI (LXFL 529 NSCLC): > 100 µM; TGI (HOP-18 NSCLC): > 100 µM; TGI (DLD-1 colon): > 100 µM
61 | NS(=O)(=O)c1nnc(NC(=O)c2cccc([N+](=O)[O-])c2)s1 | > 100 | > 100 | –
62 | O=C(c1ccccc1)c1ccc2c(c1)nc1n2C(c2c(F)cccc2F)SC1 (stereo not given) | > 100 | 46.4 | –
63 | O=[N+]([O-])c1ccc(C2=NOC(c3ccc(Cl)cc3)N2C23CC4CC(CC(C4)C2)C3)cc1 (stereo not given) | > 100 | > 100 | –
64 | CCOC(=O)c1nc2ccccc2nc1Nc1ccc(OC)cc1 | 73.6 | > 100 | –
